Reference: article PMC11649115, “In vitro safety evaluation of dopamine D3R antagonist, R-VK4-116, as a potential medication for the treatment of opioid use disorder” (PLOS ONE, 2024)
Where “and” joins values, the source holds several entries; their conditions need not be identical. Equal entries are not always repeated. Where two headings read alike, the source gives them in different places.

Legend:
CYP2B6 = assay: CYP induction, in situ catalytic activity, human hepatocytes
Description: Rifampicin as a positive control and solvent (0.1% DMSO) vehicle control were also included. The acceptance criteria for CYP induction was ≥ 2-fold induction for significant CYP activity, while the acceptance criteria for CYP mRNA was ≥ 4-fold for significant CYP induction.

[1] = Plasma protein binding, Sephadex G-25 gel filtration; type: in vitro ADME; conditions: plasma; for fraction unbound at 2 h, 0.5 μM: nominal 0.5 μM; for fraction unbound at 2 h, 1 μM: nominal 1 μM
Description: (§1) The gel filtration used solid-phase extraction columns containing hydrated gel filtration beads (Sephadex G-25). […] In this method, the amount of analyte accompanying the proteins (i.e., protein-bound R-VK4-116) before and after filtration was assayed for analyte concentration by LC-MS/MS.

rat plasma proteins = assay: as above; type: in vitro ADME
Description: as §1

dog plasma proteins = assay: as above; type: in vitro ADME
Description: as §1

[2] = Metabolic stability in liver microsomes; conditions: dog, pH 7.4
[3] = dog, read-out: % Bound, Mean ± SD (converted)
[4] = rat, read-out: % Bound (converted)
[5] = rat, read-out: % Bound, Mean ± SD (converted)
[6] = heat-inactivated liver microsomes

CCc1cc(Cl)c(OC)c(N2CCN(CC(O)CCNC(=O)c3cc4ccccc4[nH]3)CC2)c1 (stereo not drawn) [R-VK4-116, N-(4-(4-(3-chloro-5-ethyl-2-methoxyphenyl)piperazin-1-yl)-3-hydroxybutyl)-1H-indole-2-carboxamide]
Fold of Vehicle Control (CYP2B6 activity, bupropion hydroxylation) (CYP2B6; hepatocyte Lot 336, 0.01 µM): 1.2 fold
Fold of Vehicle Control (CYP2B6 activity, bupropion hydroxylation) (CYP2B6; hepatocyte Lot 336, 0.1 µM): 1.1 fold
Fold of Vehicle Control (CYP2B6 activity, bupropion hydroxylation) (CYP2B6; hepatocyte Lot 336, 1 µM): 1.1 fold
Fold of Vehicle Control (CYP2B6 activity, bupropion hydroxylation) (CYP2B6; hepatocyte Lot 336, 3 µM): 1.1 fold
Fold of Vehicle Control (CYP2B6 activity, bupropion hydroxylation) (CYP2B6; hepatocyte Lot 336, 5 µM): 1.1 fold
Bupropion Hydroxylation (CYP2B6; hepatocyte Lot 336, 10 µM): 0.97 pmol/min/106 cells
Fold of Vehicle Control (CYP2B6 activity, bupropion hydroxylation) (CYP2B6; hepatocyte Lot 336, 10 µM): 1.1 fold
Bupropion Hydroxylation (CYP2B6; hepatocyte Lot 348B, 0.01 µM): 5.0 pmol/min/106 cells
Fold of Vehicle Control (CYP2B6 activity, bupropion hydroxylation) (CYP2B6; hepatocyte Lot 348B, 0.01 µM): 1.1 fold
Bupropion Hydroxylation (CYP2B6; hepatocyte Lot 348B, 0.1 µM): 4.5 pmol/min/106 cells
Fold of Vehicle Control (CYP2B6 activity, bupropion hydroxylation) (CYP2B6; hepatocyte Lot 348B, 0.1 µM): 1.0 fold
Bupropion Hydroxylation (CYP2B6; hepatocyte Lot 348B, 1 µM): 4.5 pmol/min/106 cells
Fold of Vehicle Control (CYP2B6 activity, bupropion hydroxylation) (CYP2B6; hepatocyte Lot 348B, 1 µM): 1.0 fold
Bupropion Hydroxylation (CYP2B6; hepatocyte Lot 348B, 3 µM): 4.1 pmol/min/106 cells
Fold of Vehicle Control (CYP2B6 activity, bupropion hydroxylation) (CYP2B6; hepatocyte Lot 348B, 3 µM): 0.94 fold
Bupropion Hydroxylation (CYP2B6; hepatocyte Lot 348B, 5 µM): 3.8 pmol/min/106 cells
Fold of Vehicle Control (CYP2B6 activity, bupropion hydroxylation) (CYP2B6; hepatocyte Lot 348B, 5 µM): 0.85 fold
Bupropion Hydroxylation (CYP2B6; hepatocyte Lot 348B, 10 µM): 3.9 pmol/min/106 cells
Fold of Vehicle Control (CYP2B6 activity, bupropion hydroxylation) (CYP2B6; hepatocyte Lot 348B, 10 µM): 0.89 fold
Fold of Vehicle Control (CYP2B6 activity, bupropion hydroxylation) (CYP2B6; hepatocyte Lot 399, 0.01 µM): 1.0 fold
Fold of Vehicle Control (CYP2B6 activity, bupropion hydroxylation) (CYP2B6; hepatocyte Lot 399, 0.1 µM): 1.0 fold
Fold of Vehicle Control (CYP2B6 activity, bupropion hydroxylation) (CYP2B6; hepatocyte Lot 399, 1 µM): 1.1 fold
Fold of Vehicle Control (CYP2B6 activity, bupropion hydroxylation) (CYP2B6; hepatocyte Lot 399, 3 µM): 1.2 fold
Fold of Vehicle Control (CYP2B6 activity, bupropion hydroxylation) (CYP2B6; hepatocyte Lot 399, 5 µM): 1.1 fold
Fold of Vehicle Control (CYP2B6 activity, bupropion hydroxylation) (CYP2B6; hepatocyte Lot 399, 10 µM): 1.1 fold
fraction unbound at 2 h, 0.5 μM [1, 3]: 0.164
fraction unbound at 2 h, 1 μM [1, 3]: 0.173
fraction unbound at 2 h, 0.5 μM [1, 4]: 0.164
fraction unbound at 2 h, 0.5 μM [1, 5]: 0.168
fraction unbound at 2 h, 1 μM [1, 4]: 0.086
fraction unbound at 2 h, 1 μM [1, 5]: 0.072
% Bound (rat plasma proteins; nominal 0.5 μM): 79.3% and 86.7%
Ratio [R-VK4-116] Before Filtration / Eluate (rat plasma proteins; nominal 0.5 μM): 1.18 and 1.20
Ratio [R-VK4-116] Before Filtration / Eluate, Mean ± SD (rat plasma proteins; nominal 0.5 μM): 1.19 ± 0.01
[R-VK4-116] Before Filtration (rat plasma proteins; nominal 0.5 μM): 0.631 µM and 0.630 µM
[R-VK4-116] In Sephadex G-25 Eluate (rat plasma proteins; nominal 0.5 μM): 0.533 µM and 0.535 µM and 0.525 µM
% Bound (rat plasma proteins; nominal 1 μM): 93.9% and 93.2%
Ratio [R-VK4-116] Before Filtration / Eluate (rat plasma proteins; nominal 1 μM): 1.63 and 1.60 and 1.58
Ratio [R-VK4-116] Before Filtration / Eluate, Mean ± SD (rat plasma proteins; nominal 1 μM): 1.60 ± 0.02
[R-VK4-116] Before Filtration (rat plasma proteins; nominal 1 μM): 1.03 µM and 1.01 µM and 1.02 µM
[R-VK4-116] In Sephadex G-25 Eluate (rat plasma proteins; nominal 1 μM): 0.632 µM and 0.647 µM
% Bound (dog plasma proteins; nominal 0.5 μM): 92.1% and 80.8% and 77.9%
Ratio [R-VK4-116] Before Filtration / Eluate (dog plasma proteins; nominal 0.5 μM): 1.25 and 1.24
Ratio [R-VK4-116] Before Filtration / Eluate, Mean ± SD (dog plasma proteins; nominal 0.5 μM): 1.25 ± 0.01
[R-VK4-116] Before Filtration (dog plasma proteins; nominal 0.5 μM): 0.618 µM and 0.616 µM and 0.609 µM
[R-VK4-116] In Sephadex G-25 Eluate (dog plasma proteins; nominal 0.5 μM): 0.495 µM and 0.493 µM and 0.491 µM
% Bound (dog plasma proteins; nominal 1 μM): 73.3% and 92.5% and 82.4%
Ratio [R-VK4-116] Before Filtration / Eluate (dog plasma proteins; nominal 1 μM): 1.68 and 1.51 and 1.77
Ratio [R-VK4-116] Before Filtration / Eluate, Mean ± SD (dog plasma proteins; nominal 1 μM): 1.65 ± 0.13
[R-VK4-116] Before Filtration (dog plasma proteins; nominal 1 μM): 1.05 µM and 1.07 µM
[R-VK4-116] In Sephadex G-25 Eluate (dog plasma proteins; nominal 1 μM): 0.626 µM and 0.707 µM and 0.604 µM
remaining at 0 h, 1 μM [2, 6]: 100%
remaining at 0 h, 10 μM [2, 6]: 100%
remaining at 2 h, 1 μM [2, 6]: 90.7%
remaining at 2 h, 10 μM [2, 6]: 90.6%
remaining at 0 h, 1 μM ([2]; liver microsomes): 100%
remaining at 0 h, 10 μM ([2]; liver microsomes): 100%
